Source: US20250312365A1, “METHODS FOR INHIBITION OF SQUAMOUS CARCINOMA CELLS USING CERAMIDE MODULATORS” (The Trustees of Indiana University, priority 2024, published 2025)

Tested on: Vimentin
Test: Western blot of Vimentin in OECM1 cells
Assay type: cell-based, human
Conditions: 24 h of treatment
Protocol: To determine the effect of PGDHC on cell markers involved in metastasis, the protein levels of p-STAT3, EMT markers, E-cadherin, N-cadherin, and Vimentin in OECM1 cells following in vitro exposure to PGDHC were determined by Western blot assay.

Question: How did the “protein level of Vimentin in OECM1 cells” value turn out when phosphoglycerol dihydroceramide [PGDHC] was run?
Answer: The value was “little to no detectable effect”.
